# Reference: patent US9211296B2, “Therapeutic compounds for blocking DNA synthesis of POX viruses” (priority 2007, dated 2015)
# Test system: vaccinia virus
# Assay type: cell-based
# Note: test concentration or dose not given here.
row,Structure (SMILES),Blocking the replication of vaccinia virus in cells
1,"CCN1C(=O)/C(=C/C=C/c2ccco2)C(=O)NC1=S [XXXI, (E)-1-ethyl-5-((E)-3-(furan-2-yl)allylidene)-2-thioxodihydropyrimidine-4,6(1H,5H)-dione]",effective in blocking the replication of vaccinia virus in cells
2,"O=c1cc(-c2ccc(O)cc2)oc2cc(O)cc(O)c12 [V, Apigenin]",effective in blocking the replication of vaccinia virus in cells
3,"COc1ccc(Nc2nc(N3CCN(C)CC3)nc3ccccc23)c(OC)c1 [XXII, 4-Quinazolinamine, N-(2,4-dimethoxyphenyl)-2-(4-methyl-1-piperazinyl)-(9CI)]",effective in blocking the replication of vaccinia virus in cells
4,"Cc1ccc2oc(-c3ccccc3)c/c(=N\CCO)c2c1 [II, (E)-2-(6-methyl-2-phenyl-4H-chromen-4-ylideneamino)ethanol]",effective in blocking the replication of vaccinia virus in cells
5,"COC(=O)c1c(NC(=O)c2ccc(OC)cc2)sc2c1CCN(C(C)C)C2.Cl [XXVII, Methyl 6-isopropyl-2-(4-methoxyphenylamido)-4,5,6,7-tetrahydrothieno[2,3-c]pyridine-3-carboxylate hydrochloride]",effective in blocking the replication of vaccinia virus in cells
6,"COC(=O)c1cccc2c1-c1ccccc1/C2=N\O [VIII, (E)-methyl 9-(hydroxyimino)-9H-fluorene-4-carboxylate]",effective in blocking the replication of vaccinia virus in cells
7,"COc1ccc2c(C)nc(N=C(N)N=C(C)c3ccccc3C(=O)O)nc2c1 [XXIII, Benzoic acid, 2-[1-[[amino[(7-methoxy-4-methyl-2-quinazolinyl)imino]methyl]imino]ethyl]-(9CI)]",effective in blocking the replication of vaccinia virus in cells
8,"CN1CCc2c(-c3cccs3)nc(OCc3ccccc3Br)c(C#N)c2C1 [XXXV, 3-(2-bromobenzyloxy)-6-methyl-1-(thiophen-2-yl)-5,6,7,8-tetrahydro-2,6-naphthyridine-4-carbonitrile]",effective in blocking the replication of vaccinia virus in cells
9,"O=C(Nc1ccccc1C(=O)O)OCC1c2ccccc2-c2ccccc21 [XXI, Benzoic acid, 2-[[(9H-fluoren-9-ylmethoxy)carbonyl]amino]-(9CI)]",effective in blocking the replication of vaccinia virus in cells
10,"O=C(C=Cc1ccco1)C=Cc1ccco1 [XXVI, 1,4-Pentadien-3-one, 1,5-di-2-furanyl-(9CI)]",effective in blocking the replication of vaccinia virus in cells
11,"CCS(=O)(=O)N1CCN=C1SCc1ccc(Cl)cc1Cl [XI, 1H-Imidazole, 2-[[(2,4-dichlorophenyl)methyl]thio]-1-(ethylsulfonyl)-4,5-dihydro-(9CI)]",effective in blocking the replication of vaccinia virus in cells
12,"CCC/N=c1\cc(-c2ccccc2)oc2ccc(C)cc12 [III, (E)-N-(6-methyl-2-phenyl-4H-chromen-4-ylidene)propan-1-amine]",effective in blocking the replication of vaccinia virus in cells
13,"Cc1c(N=Cc2cc(Br)cc(Br)c2O)cccc1C(=O)O [XV, Benzoic acid, 3-[[(3,5-dibromo-2-hydroxyphenyl)methylene]amino]-2-methyl-(9CI)]",effective in blocking the replication of vaccinia virus in cells
14,"CCOC(=O)c1c(NC(=O)/C=C/C(=O)O)sc(C)c1-c1ccccc1 [XXVIII, (E)-4-(3-(ethoxycarbonyl)-5-methyl-4-phenylthiophen-2-ylamino)-4-oxobut-2-enoic acid]",effective in blocking the replication of vaccinia virus in cells
15,"COc1ccc(Nc2cc(C(F)(F)F)ccc2Cl)c(C(=O)O)c1 [XXXIV, 2-(2-chloro-5-(trifluoromethyl)phenylamino)-5-methoxybenzoic acid]",effective in blocking the replication of vaccinia virus in cells
